Measured values: patent US20190134005A1 (BioMarin Pharmaceutical Inc., priority 2016, published 2019)
Where two headings read alike, the source gives them in different places.

Target: T1, human CGT (Homo sapiens, UniProt Q16880)
T1 sequence (Q16880 21-541): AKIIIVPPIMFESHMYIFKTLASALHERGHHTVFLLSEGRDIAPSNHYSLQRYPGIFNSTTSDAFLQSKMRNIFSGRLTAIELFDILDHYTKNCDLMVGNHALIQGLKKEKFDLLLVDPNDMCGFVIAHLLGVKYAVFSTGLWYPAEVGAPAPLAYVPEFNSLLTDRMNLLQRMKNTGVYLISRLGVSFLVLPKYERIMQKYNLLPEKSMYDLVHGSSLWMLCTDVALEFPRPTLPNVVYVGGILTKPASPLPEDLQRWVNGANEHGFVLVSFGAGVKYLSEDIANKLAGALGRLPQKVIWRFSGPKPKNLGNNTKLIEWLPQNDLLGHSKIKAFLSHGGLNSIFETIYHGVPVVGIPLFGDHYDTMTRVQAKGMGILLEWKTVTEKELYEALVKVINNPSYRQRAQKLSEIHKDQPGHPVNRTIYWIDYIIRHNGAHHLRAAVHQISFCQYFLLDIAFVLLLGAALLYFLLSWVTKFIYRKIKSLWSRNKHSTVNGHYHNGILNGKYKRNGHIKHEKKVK
Assay: Assay 1: CGT Enzymatic Assay (RapidFire/MS/MS, 0.01% Tween 80)
Format: biochemical
Conditions: Table 1, Compounds of Formula (I) and Formula (II), CGT enzymatic assay, read-out: IC50

[1] = C6-NBD-dihydro-galactosylceramide readout

SMILES	IC50 [nM]	IC50 [1] [nM]
CCC[C@H]1N(c2ccc(Cl)cc2)C(=O)N(c2ccc(Cl)cc2)C1(O)c1cccc(C)c1 (stereo partly drawn) [Compound 90-2, (5R)-1,3-bis(4-chlorophenyl)-4-hydroxy-5-propyl-4-(m-tolyl)imidazolidin-2-one]	< 1000	–
CCOC(=O)C1(O)C(c2ccccc2)N(c2ccc(Cl)cc2)C(=O)N1c1ccc(Cl)cc1 (stereo not shown) [Example 217, ethyl 1,3-bis(4-chlorophenyl)-4-hydroxy-2-oxo-5-phenylimidazolidine-4-carboxylate]	1000 to 10000	–
CCC[C@@H]1N(c2ccc(Br)cc2)C(=O)N(c2ccc(Br)cc2)C1(O)c1cccc(CC)c1 (stereo partly drawn) [Compound 88-1, (5S)-1,3-bis(4-bromophenyl)-4-(3-ethylphenyl)-4-hydroxy-5-propylimidazolidin-2-one]	< 1000	–
CC1N(c2ccccc2)C(=O)N(c2ccccc2)C1(O)c1cccc(OC(F)(F)F)c1 (stereo not shown) [Example 230, 4-hydroxy-5-methyl-1,3-diphenyl-4-(3-(trifluoromethoxy)phenyl)imidazolidin-2-one]	1000 to 10000	–
COc1cccc(C2(O)[C@@H](C)N(c3ccc(Br)cc3)C(=O)N2c2ccc(Br)cc2)c1 (stereo partly drawn) [Compound 71-2, (5R)-1,3-bis(4-bromophenyl)-4-hydroxy-4-(3-methoxyphenyl)-5-methylimidazolidin-2-one]	< 1000	–
CCc1cccc(C2(O)[C@H](C)N(c3ccc(Br)cc3)C(=O)N2c2ccc(Br)cc2)c1 (stereo partly drawn) [Compound 68-1, (5S)-1,3-bis(4-bromophenyl)-4-(3-ethylphenyl)-4-hydroxy-5-methylimidazolidin-2-one]	< 1000	–
CC[C@]1(C)N(c2ccc(Cl)cc2)C(=O)N(c2ccc(Cl)cc2)C1(O)c1cccc(C#N)c1 (single isomer, unassigned) [Example 185-2]	< 1000	–
CCC[C@H]1N(c2ccc(Br)cc2)C(=O)N(c2ccc(Br)cc2)C1(O)c1cccc(C(F)(F)F)c1 (stereo partly drawn) [Compound 100-2, (5R)-1,3-bis(4-bromophenyl)-4-hydroxy-5-propyl-4-(3-(trifluoromethyl)phenyl)imidazolidin-2-one]	< 1000	–
CC#Cc1cccc(C2(O)[C@H](C)N(c3ccc(Cl)cc3)C(=O)N2c2ccc(Cl)cc2)c1 (stereo partly drawn) [Compound 103-1, (5S)-1,3-bis(4-chlorophenyl)-4-hydroxy-5-methyl-4-(3-(prop-1-yn-1-yl)phenyl)imidazolidin-2-one]	< 1000	–
Cc1cccc(-c2c(C)n(-c3ccc(Cl)cc3)c(=O)n2-c2ccc(Cl)cc2)c1 [Compound 260, 1,3-bis(4-chlorophenyl)-4-methyl-5-(m-tolyl)-1,3-dihydro-2H-imidazol-2-one]	1000 to 10000	–
O=C1N(c2ccc(C(F)(F)F)cc2)C2(COC2)C(O)(c2cccc(OC(F)(F)F)c2)N1c1ccc(C(F)(F)F)cc1 (stereo not shown) [Compound 302, 8-hydroxy-8-(3-(trifluoromethoxy)phenyl)-5,7-bis(4-(trifluoromethyl)phenyl)-2-oxa-5,7-diazaspiro[3.4]octan-6-one]	–	< 1000
CCCC1N(c2ccc(Cl)cc2)C(=O)N(c2ccc(Cl)cc2)C1(O)c1cccc(C)c1 (stereo not shown) [Compound 90, 1,3-bis(4-chlorophenyl)-4-hydroxy-5-propyl-4-(m-tolyl)imidazolidin-2-one]	< 1000	–
Cc1cccc(C2(O)[C@@H](C)N(c3ccc(Br)cc3)C(=O)N2c2ccc(Br)cc2)c1 (stereo partly shown) [Example 29-2]	< 1000	–
Cc1ccc(N2C(=O)N(c3ccc(C#N)cc3)C(O)(c3cccc(OC(F)(F)F)c3)C23CCC3)cc1 (stereo not shown) [Compound 281, 4-(8-hydroxy-6-oxo-5-(p-tolyl)-8-(3-(trifluoromethoxy)phenyl)-5,7-diazaspiro[3.4]octan-7-yl)benzonitrile]	–	< 1000
C[C@@]1(C(F)(F)F)N(c2ccc(Cl)cc2)C(=O)N(c2ccc(Cl)cc2)C1(O)c1cccc(OC(F)(F)F)c1 (single isomer, unassigned) [Example 159-2]	< 1000	–
C[C@@H]1N(c2ccc(Br)cc2)C(=O)N(c2ccc(Br)cc2)C1(O)c1cccc(OC(F)(F)F)c1 (stereo partly drawn) [Compound 66-1, (5S)-1,3-bis(4-bromophenyl)-4-hydroxy-5-methyl-4-(3-(trifluoromethoxy)phenyl)imidazolidin-2-one]	< 1000	–
